Measured values as given in ChEMBL document CHEMBL1131087, “New cyclooxygenase-2/5-lipoxygenase inhibitors. 3. 7-tert-butyl-2, 3-dihydro-3,3-dimethylbenzofuran derivatives as gastrointestinal safe antiinflammatory and analgesic agents: variations at the 5 position” (J Med Chem, 1998).
Calls of active or inactive are those of the source. The rule behind the calls is not given here.

Columns and labels:
[1] = test system: Rattus norvegicus; assay: Inhibition of paw swelling relative to the tebufelone in rat. Value was reported as Carrageenan paw edema index; type: functional
[2] = organism: Rattus norvegicus; assay: Analgesic activity in phenylquinone-induced abdominal constriction assay (PAC); type: functional, Abdomen; set-up: concentration or dose not given beside the values
[3] = biological target: T1, Prostaglandin G/H synthase 2 (Homo sapiens, UniProt P35354)
T1 sequence (P35354 whole entry): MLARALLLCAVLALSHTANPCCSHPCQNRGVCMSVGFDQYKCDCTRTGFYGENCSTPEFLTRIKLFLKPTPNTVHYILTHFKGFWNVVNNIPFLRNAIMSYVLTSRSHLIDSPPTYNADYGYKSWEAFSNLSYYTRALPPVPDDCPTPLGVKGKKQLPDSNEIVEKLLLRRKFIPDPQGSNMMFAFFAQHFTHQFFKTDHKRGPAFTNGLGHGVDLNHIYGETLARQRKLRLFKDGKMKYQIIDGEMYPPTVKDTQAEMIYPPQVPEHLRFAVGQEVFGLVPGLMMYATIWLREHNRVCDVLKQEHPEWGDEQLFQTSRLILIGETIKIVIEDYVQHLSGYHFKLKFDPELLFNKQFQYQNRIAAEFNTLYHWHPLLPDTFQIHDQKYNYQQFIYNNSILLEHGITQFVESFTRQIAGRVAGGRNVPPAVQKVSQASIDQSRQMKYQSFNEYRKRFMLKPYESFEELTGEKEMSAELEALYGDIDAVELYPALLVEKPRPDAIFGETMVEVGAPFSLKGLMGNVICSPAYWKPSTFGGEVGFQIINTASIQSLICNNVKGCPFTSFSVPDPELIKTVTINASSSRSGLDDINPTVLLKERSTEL
Description: Inhibitory activity against prostaglandin G/H synthase 2 (COX-2)

[4] = biological target: Prostaglandin G/H synthase 1 (Homo sapiens, UniProt P23219)
Sequence of Prostaglandin G/H synthase 1 (P23219 whole entry): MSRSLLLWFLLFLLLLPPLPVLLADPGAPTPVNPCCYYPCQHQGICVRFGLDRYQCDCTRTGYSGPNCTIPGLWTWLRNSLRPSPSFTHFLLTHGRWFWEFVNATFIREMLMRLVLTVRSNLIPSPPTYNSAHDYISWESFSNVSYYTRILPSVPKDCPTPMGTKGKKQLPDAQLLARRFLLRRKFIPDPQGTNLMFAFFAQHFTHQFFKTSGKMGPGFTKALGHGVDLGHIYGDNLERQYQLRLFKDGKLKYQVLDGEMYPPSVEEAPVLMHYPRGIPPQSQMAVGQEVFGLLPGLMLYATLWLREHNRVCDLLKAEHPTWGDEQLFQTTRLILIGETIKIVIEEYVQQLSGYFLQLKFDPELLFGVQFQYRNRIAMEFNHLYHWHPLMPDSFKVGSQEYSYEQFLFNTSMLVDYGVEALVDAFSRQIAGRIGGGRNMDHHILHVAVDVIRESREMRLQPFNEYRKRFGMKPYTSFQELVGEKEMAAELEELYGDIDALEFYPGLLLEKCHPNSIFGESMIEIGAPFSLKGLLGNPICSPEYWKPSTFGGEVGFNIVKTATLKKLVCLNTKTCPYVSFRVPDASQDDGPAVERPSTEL
Description: Inhibitory activity against prostaglandin G/H synthase 1 (COX-1)

[5] = test system: Rattus norvegicus; assay: Comparative activity versus Dihydrodimethylbenzofurans in the CPE (Carrageenan paw edema) assay; (-) indicates the compound is inactive; type: functional, organism-based
[6] = biological target: T2, Polyunsaturated fatty acid 5-lipoxygenase (Homo sapiens, UniProt P09917); assay: Inhibition of 5-Lipoxygenase (5-LOX)
T2 sequence (P09917 whole entry): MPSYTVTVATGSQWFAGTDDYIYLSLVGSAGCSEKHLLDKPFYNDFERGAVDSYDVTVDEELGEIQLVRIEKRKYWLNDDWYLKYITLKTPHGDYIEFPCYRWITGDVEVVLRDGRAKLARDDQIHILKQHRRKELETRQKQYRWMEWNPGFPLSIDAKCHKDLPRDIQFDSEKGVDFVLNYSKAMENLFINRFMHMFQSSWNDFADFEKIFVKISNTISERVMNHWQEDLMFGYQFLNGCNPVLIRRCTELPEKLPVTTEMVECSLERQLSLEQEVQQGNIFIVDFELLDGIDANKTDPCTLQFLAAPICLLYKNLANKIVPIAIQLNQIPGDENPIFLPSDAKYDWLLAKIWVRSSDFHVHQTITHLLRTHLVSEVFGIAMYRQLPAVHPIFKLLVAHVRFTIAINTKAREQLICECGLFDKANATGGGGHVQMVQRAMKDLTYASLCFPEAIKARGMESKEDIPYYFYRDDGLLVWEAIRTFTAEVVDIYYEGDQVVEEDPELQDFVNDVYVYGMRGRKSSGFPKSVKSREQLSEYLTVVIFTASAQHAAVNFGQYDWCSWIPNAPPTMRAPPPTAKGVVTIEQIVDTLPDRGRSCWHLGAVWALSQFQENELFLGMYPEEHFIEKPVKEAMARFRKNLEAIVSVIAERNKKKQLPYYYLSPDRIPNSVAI

[7] = organism: Rattus norvegicus; assay: Compound was tested for its analgesic activity in phenylquinone-induced abdominal constriction assay(PAC); type: functional; settings: Abdomen
[8] = test system: Rattus norvegicus; assay: Analgesic activity (50 mg/kg, sc)in phenylquinone-induced abdominal constriction assay(PAC); type: functional, Abdomen

CC(C)(C)c1cc(C(=O)c2ccoc2)cc2c1OCC2(C)C
CPE index [1]: 0.68 | Inhibition [2]: 3%

CN(C)CCNC(=O)c1cc(C(C)(C)C)c2c(c1)C(C)(C)CO2
CPE index [1]: 0

CCCCNC(=O)c1cc(C(C)(C)C)c2c(c1)C(C)(C)CO2
CPE index [1]: 0.46 | IC50 [3]: 220 nM | IC50 [4]: 2500 nM

CCCCCNC(=O)c1cc(C(C)(C)C)c2c(c1)C(C)(C)CO2
CPE index [1]: 0.16 | IC50 [3]: 250 nM | IC50 [4]: 2000 nM

CC(C)(C)c1cc(C(=O)O)cc(C(C)(C)C)c1O
Activity [5]: inactive

CC(C)(C)c1cc(/C=C\c2cccs2)cc2c1OCC2(C)C
CPE index [1]: 0.77 | Inhibition [2]: 13% | IC50 [6]: 6000 nM | IC50 [3]: 35 nM | IC50 [4]: 20 nM

CC(C)(C)c1cc(/C=C\c2cccnc2)cc2c1OCC2(C)C
CPE index [1]: 0.78 | Inhibition [2]: 45%

CC(C)(C)c1cc(-c2cscn2)cc2c1OCC2(C)C
CPE index [1]: 1.53 | Inhibition [2]: 59%

CC(C)(C)c1cc(C(=O)N2CCSCC2)cc2c1OCC2(C)C
CPE index [1]: 0.71 | Inhibition [2]: 29%

CC(C)(C)c1cc(C(=O)NCC2CC2)cc2c1OCC2(C)C
CPE index [1]: 0.44

CC(C)(C)c1cc(Nc2ccccc2C(=O)O)cc2c1OCC2(C)C
CPE index [1]: 0.78 | IC50 [3]: 4000 nM | IC50 [4]: 2500 nM

CC(C)(C)c1cc(-c2csc(N=C(N)N)n2)cc2c1OCC2(C)C
CPE index [1]: 1.38 | Inhibition [2]: 77% | IC50 [3]: 9000 nM | IC50 [4]: 15000 nM

CC(C)(C)c1cc(/C=C\c2ccccn2)cc2c1OCC2(C)C
CPE index [1]: 0.5 | Activity [5]: inactive

CC(C)(C)c1cc(C(=O)Nc2nccs2)cc2c1OCC2(C)C
CPE index [1]: 0.49

CN(C(=O)c1cc(C(C)(C)C)c2c(c1)C(C)(C)CO2)C1CC1
CPE index [1]: 1.82 | ED50 [7]: 10 mg/kg | IC50 [6]: 12000 nM | IC50 [3]: 1000 nM | IC50 [4]: 5000 nM

CCCN(C)C(=O)c1cc(C(C)(C)C)c2c(c1)C(C)(C)CO2
CPE index [1]: 0.91 | Inhibition [2]: 36%

CC(C)(C)c1cc(-c2cn3cc[s+]([O-])c3n2)cc2c1OCC2(C)C (stereo not drawn)
CPE index [1]: 0.96

CC(C)(C)c1cc(C(=O)c2cccs2)cc2c1OCC2(C)C
CPE index [1]: 0.58 | Inhibition [2]: 34% | IC50 [6]: 10000 nM | IC50 [3]: 38 nM | IC50 [4]: 45 nM

COCCNC(=O)c1cc(C(C)(C)C)c2c(c1)C(C)(C)CO2
CPE index [1]: 1.47 | Inhibition [2]: 84% | IC50 [6]: 50000 nM | IC50 [3]: 30 nM | IC50 [4]: 1000 nM

CC(C)(C)c1cc(C(=O)NCCC2CC2)cc2c1OCC2(C)C
CPE index [1]: 0.06

CC(C)(C)c1cc(/C=C(/C(=O)O)c2cccs2)cc2c1OCC2(C)C
CPE index [1]: 0.76 | Inhibition [2]: 19%

CC(C)(C)c1cc(C(=O)NC2CCC2)cc2c1OCC2(C)C
CPE index [1]: 0

CC(C)(C)c1cc(-c2cn3ccsc3n2)cc2c1OCC2(C)C
CPE index [1]: 0.81 | Inhibition [2]: 68% | IC50 [6]: 10000 nM | IC50 [3]: 15 nM | IC50 [4]: 75 nM

Cc1nc(-c2cc(C(C)(C)C)c(O)c(C(C)(C)C)c2)no1
Activity [5]: inactive

CCNC(=O)c1cc(C(C)(C)C)c2c(c1)C(C)(C)CO2
CPE index [1]: 0.88 | Inhibition [8]: 56% | IC50 [3]: 6000 nM | IC50 [4]: 20000 nM

CC(C)(C)c1cc(-c2ccco2)cc2c1OCC2(C)C
CPE index [1]: 0.93 | Inhibition [2]: 7%

CCCNC(=O)Nc1cc(C(C)(C)C)c2c(c1)C(C)(C)CO2
CPE index [1]: 0.41

Cc1nc(-c2cc(C(C)(C)C)c3c(c2)C(C)(C)CO3)no1
CPE index [1]: 0.83

CC(C)(C)c1cc(C(N)=O)cc(C(C)(C)C)c1O
Activity [5]: inactive

CN(C)C(=N)c1cc(C(C)(C)C)c2c(c1)C(C)(C)CO2
CPE index [1]: 0.47

CCNC(=O)Nc1cc(C(C)(C)C)c2c(c1)C(C)(C)CO2
CPE index [1]: 0.73 | Inhibition [2]: 36%

CC(C)(C)c1cc(C=C2CCOC2=O)cc2c1OCC2(C)C
CPE index [1]: 0.93 | IC50 [6]: 4000 nM | IC50 [3]: 3.5 nM | IC50 [4]: 45 nM

CC(C)(C)c1cc(C(=O)c2ccco2)cc2c1OCC2(C)C
CPE index [1]: 0.7 | Inhibition [2]: 24%

Cc1cc(/C=C\c2cc(C(C)(C)C)c3c(c2)C(C)(C)CO3)on1
CPE index [1]: 0 | Activity [5]: inactive

CCN(C(=O)c1cc(C(C)(C)C)c2c(c1)C(C)(C)CO2)C1CC1
CPE index [1]: 1.14

CC(C)(C)c1cc(C(=O)Nc2ccccc2)cc2c1OCC2(C)C
CPE index [1]: 0.01

CC(C)NC(=O)c1cc(C(C)(C)C)c2c(c1)C(C)(C)CO2
CPE index [1]: 1.09 | Inhibition [2]: 43%

CC(C)(C)c1cc(C(=O)c2nccs2)cc2c1OCC2(C)C
CPE index [1]: 0.75 | Inhibition [2]: 28%

COC(=O)c1cc(C(C)(C)C)c2c(c1)C(C)(C)CO2
CPE index [1]: 0.16

CC(C)(C)c1cc(C(=N)N2CCCC2)cc2c1OCC2(C)C
CPE index [1]: 0.8 | Inhibition [2]: 0% | IC50 [6]: 30000 nM | IC50 [3]: > 100000 nM | IC50 [4]: > 100000 nM

CC(C)(C)c1cc(C(=O)NCCO)cc2c1OCC2(C)C
CPE index [1]: 0.33

CC(C)(C)c1cc(C(=O)NC2CC2)cc2c1OCC2(C)C
CPE index [1]: 0.68 | Inhibition [2]: 20% | IC50 [6]: > 50000 nM | IC50 [3]: 550 nM | IC50 [4]: 290 nM

CC(C)(C)c1cc(C(=O)NCC(O)CO)cc2c1OCC2(C)C (stereo not drawn)
CPE index [1]: 0.51

CC(C)(C)c1cc(-c2cocn2)cc2c1OCC2(C)C
CPE index [1]: 0.19

CC1(C)CC(c2cc(C(C)(C)C)c3c(c2)C(C)(C)CO3)=NO1
CPE index [1]: 0.56 | Inhibition [2]: 80% | IC50 [3]: 200 nM | IC50 [4]: 70 nM

CC(C)(C)c1cc(C(=O)NC2CCCC2)cc2c1OCC2(C)C
CPE index [1]: 0

CC(C)(C)c1cc(C(=O)NC2=NCCS2)cc2c1OCC2(C)C
CPE index [1]: 0.81 | Inhibition [2]: 65%

CC(C)(C)c1cc(-c2csc(N)n2)cc2c1OCC2(C)C
CPE index [1]: 0.26

CC(C)(C)c1cc(C(=O)N2CCCCC2)cc2c1OCC2(C)C
CPE index [1]: 0.52 | Inhibition [2]: 34%

CC(C)(C)c1cc(C(=O)c2ccsc2)cc2c1OCC2(C)C
CPE index [1]: 0.62 | Inhibition [2]: 40%

CC(C)(C)c1cc(/C=C2/SC(N)=NC2=O)cc2c1OCC2(C)C
CPE index [1]: 0.07 | Activity [5]: inactive | IC50 [3]: 3000 nM | IC50 [4]: 5000 nM

Cn1cccc1C(=O)c1cc(C(C)(C)C)c2c(c1)C(C)(C)CO2
CPE index [1]: 1.24 | Inhibition [2]: 57% | IC50 [3]: 45 nM | IC50 [4]: 35 nM

CC(C)(C)c1cc(-c2cccs2)cc2c1OCC2(C)C
CPE index [1]: 0.92 | Inhibition [2]: 52% | IC50 [6]: 9000 nM | IC50 [3]: 70 nM | IC50 [4]: 200 nM

Cc1cc(/C=C\c2cc(C(C)(C)C)c3c(c2)C(C)(C)CO3)[nH]n1
CPE index [1]: 0.56 | Inhibition [2]: 35%

CCCN(C(=O)c1cc(C(C)(C)C)c2c(c1)C(C)(C)CO2)C1CC1
CPE index [1]: 1.41 | IC50 [3]: 4000 nM | IC50 [4]: 4500 nM

CC(C)(C)c1cc(-c2cn3c(n2)S(=O)(=O)C=C3)cc(C(C)(C)C)c1O
Activity [5]: inactive

CC(C)(C)c1cc(C(=O)N2CCCC2)cc2c1OCC2(C)C
CPE index [1]: 0.78

CC(=O)Nc1cc(C(C)(C)C)c(O)c(C(C)(C)C)c1
Activity [5]: inactive

CC(C)(C)c1cc(C(=O)O)cc2c1OCC2(C)C
CPE index [1]: 0.47

CCN(C)C(=O)c1cc(C(C)(C)C)c2c(c1)C(C)(C)CO2
CPE index [1]: 0.86 | ED50 [7]: 19 mg/kg | IC50 [6]: 22000 nM | IC50 [3]: 4500 nM | IC50 [4]: 2500 nM

CC(=O)Nc1cc(C(C)(C)C)c2c(c1)C(C)(C)CO2
CPE index [1]: 0.66 | Inhibition [2]: 22% | IC50 [3]: 3500 nM | IC50 [4]: 3500 nM

CCCNC(=O)c1cc(C(C)(C)C)c2c(c1)C(C)(C)CO2
CPE index [1]: 1.17 | Inhibition [2]: 63% | IC50 [6]: > 50000 nM | IC50 [3]: 950 nM | IC50 [4]: 550 nM
